From US11827628B2, “Compositions and methods for inhibition of the JAK pathway” (Rigel Pharmaceuticals, Inc., priority 2005, dated 2023)

System: up-regulation of ICAM-1 (CD54) by IFNγ in U937 human monocytic cells
Test: U937 IFNγ ICAM1 FACS Assay
Assay type: cell-based
Conditions: U937 cells stimulated with IFNγ; ICAM-1 expression by FACS; read-out: IC50, Example 44
In short: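 U937 cells in 10% FCS RPMI were preincubated 30 min at 37 °C with an 8-point, 3-fold compound dilution series in duplicate, then stimulated with IFNγ for 18–24 h. Surface ICAM-1 was stained with APC anti-ICAM-1 and read by flow cytometry as geometric mean on live-gated cells. EC50 was derived.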

For “5-Fluoro-N4-[4-(3-methyl-1,2,4-oxadiazol-3-yl)methyleneoxyphenyl]-N2-[(3-N-propanamido)sulfonylphenyl)]-2,4-pyrimidinediamine [Compound I-262]”, the IC50 was 1040 nM.

`Cc1ccc(Nc2ncc(F)c(Nc3cccc(OC4CCCN(C)C4)c3)n2)cc1S(N)(=O)=O` (racemic) [II-1, Racemic N2-(3-aminosulfonyl-4-methylphenyl)-5-fluoro-N4-{3-[(1-methylpiperidin-3-yl)oxy]phenyl}-2,4-pyrimidinediamine] was tested, and the IC50 was 8330 nM.

In the case of `Cc1ccc(Nc2ncc(F)c(Nc3ccc(OC4CCCN(C)C4)c(Cl)c3)n2)cc1S(N)(=O)=O` (racemic) [II-3, Racemic N2-(3-aminosulfonyl-4-methylphenyl)-N4-{3-chloro-4-[(1-methylpiperidin-3-yl)oxy]phenyl}-5-fluoro-2,4-pyrimidinediamine], the IC50 is reported as 6500 nM.

With `Cc1ccc(Nc2ncc(F)c(Nc3ccc(OC4CCCN(C)C4)cc3)n2)cc1S(N)(=O)=O` (racemic) [II-4, Racemic N2-(3-aminosulfonyl-4-methylphenyl)-5-fluoro-N4-{4-[(1-methylpiperidin-3-yl)oxy]phenyl}-2,4-pyrimidinediamine] the IC50 was 3510 nM.

`N#CCOc1ccc(Nc2nc(Nc3cccc(S(N)(=O)=O)c3)ncc2F)cc1` [Compound I-17, N2-(3-Aminosulfonyl)phenyl-N4-(4-cyanomethoxy)phenyl-5-fluoro-2,4-pyrimidinediamine] showed an IC50 of 365 nM.

Compound `CN1CCN(S(=O)(=O)c2cccc(Nc3ncc(F)c(Nc4ccc(OCC#N)cc4)n3)c2)CC1` [Compound I-19, N4-(4-Cyanomethoxy)phenyl-5-fluoro-N2-[3-(4-methylpiperazin-1-yl)sulfonyl]phenyl-2,4-pyrimidinediamine] has an IC50 of 10100 nM.

`Cc1ccc(Nc2ncc(F)c(Nc3ccc(OCC#N)cc3)n2)cc1S(N)(=O)=O` [Compound I-20, N2-(3-Aminosulfonyl-4-methyl)phenyl-N4-(4-cyanomethoxy)phenyl-5-fluoro-2,4-pyrimidinediamine] showed an IC50 of 339 nM.

With `N#CCOc1ccc(Nc2nc(Nc3ccc(Cl)c(S(N)(=O)=O)c3)ncc2F)cc1` [Compound I-21, N2-(3-Aminosulfonyl-4-chlorophenyl)-N4-(4-cyanomethoxy)phenyl-5-fluoro-2,4-pyrimidinediamine] the IC50 was 822 nM.

`Cc1cc(Nc2nc(Nc3ccc(S(N)(=O)=O)cc3)ncc2F)ccc1OCC#N` [Compound I-22, N2-(4-Aminosulfonyl)phenyl-N4-(4-cyanomethoxy-3-methyl)phenyl-5-fluoro-2,4-pyrimidinediamine] gave an IC50 of 4430 nM.

`Cc1cc(Nc2nc(Nc3cccc(S(N)(=O)=O)c3)ncc2F)ccc1OCC#N` [Compound I-23, N2-(3-Aminosulfonyl)phenyl-N4-(4-cyanomethoxy-3-methyl)phenyl-5-fluoro-2,4-pyrimidinediamine] was tested, and the IC50 was 455 nM.

Compound `Cc1cc(Nc2nc(Nc3ccc(C)c(S(N)(=O)=O)c3)ncc2F)ccc1OCC#N` [Compound I-24, N2-(3-Aminosulfonyl-4-methyl)phenyl-N4-(4-cyanomethoxy-3-methyl)phenyl-5-fluoro-2,4-pyrimidinediamine] has an IC50 of 1040 nM.

With `Cc1cc(Nc2nc(Nc3cccc(S(N)(=O)=O)c3)ncc2F)cc(C)c1OCC#N` [Compound I-26, N2-(3-Aminosulfonyl)phenyl-N4-(4-cyanomethoxy-3,5-dimethyl)phenyl-5-fluoro-2,4-pyrimidinediamine] the IC50 was 424 nM.

For `Cc1ccc(Nc2ncc(F)c(Nc3cc(C)c(OCC#N)c(C)c3)n2)cc1S(N)(=O)=O` [Compound I-27, N2-(3-Aminosulfonyl-4-methyl)phenyl-N4-(4-cyanomethoxy-3,5-dimethyl)phenyl-5-fluoro-2,4-pyrimidinediamine], the IC50 was 534 nM.

With `COc1cc(Nc2ncc(F)c(Nc3ccc(OCC#N)cc3)n2)ccc1S(N)(=O)=O` [Compound I-28, N2-(4-Aminosulfonyl-3-methoxyphenyl)-N4-(4-cyanomethoxy)phenyl-5-fluoro-2,4-pyrimidinediamine] the IC50 was 1890 nM.

`COc1cc(Nc2ncc(F)c(Nc3cc(C)c(OCC#N)c(C)c3)n2)ccc1S(N)(=O)=O` [Compound I-32, N2-(4-Aminosulfonyl-3-methoxy)phenyl-N4-(4-cyanomethoxy-3,5-dimethyl)phenyl-5-fluoro-2,4-pyrimidinediamine] showed an IC50 of 1970 nM.

For `N#CCOc1ccc(Nc2nc(Nc3ccc(F)c(S(N)(=O)=O)c3)ncc2F)cc1` [Compound I-33, N2-(3-Aminosulfonyl-4-fluoro)phenyl-N4-(4-cyanomethoxy)phenyl-5-fluoro-2,4-pyrimidinediamine], the IC50 was 897 nM.

`Cc1cc(COc2ccc(Nc3nc(Nc4cc(Cl)c(C)c(S(N)(=O)=O)c4)ncc3F)cc2C)no1` [Compound I-216, N2-(3-Aminosulfonyl-5-chloro-4-methylphenyl)-5-fluoro-N4-[3-methyl-4-(5-methylisoxazol-3-yl)methyleneoxyphenyl]-2,4-pyrimidinediamine] showed an IC50 of 1570 nM.

For `Cc1cc(COc2ccc(Nc3nc(Nc4cc(C)c(F)c(S(N)(=O)=O)c4)ncc3F)cc2)no1` [Compound I-217, N2-(3-Aminosulfonyl-4-fluoro-5-methylphenyl)-5-fluoro-N4-[4-(5-methylisoxazol-3-yl)methyleneoxyphenyl]-2,4-pyrimidinediamine], the IC50 was 478 nM.

`Cc1cc(COc2ccc(Nc3nc(Nc4cc(C)c(Cl)c(S(N)(=O)=O)c4)ncc3F)cc2)no1` [Compound I-218, N2-(3-Aminosulfonyl-4-chloro-5-methylphenyl)-5-fluoro-N4-[4-(5-methylisoxazol-3-yl)methyleneoxyphenyl]-2,4-pyrimidinediamine] gave an IC50 of 434 nM.

`Cc1cc(COc2ccc(Nc3nc(Nc4ccc(C)c(S(N)(=O)=O)c4)ncc3F)cc2)no1` [Compound I-219, N2-(3-Aminosulfonyl-4-methylphenyl)-5-fluoro-N4-[4-(5-methylisoxazol-3-yl)methyleneoxyphenyl]-2,4-pyrimidinediamine] showed an IC50 of 588 nM.

Work on `Cc1cc(COc2ccc(Nc3nc(Nc4ccc(C)c(S(N)(=O)=O)c4)ncc3F)cc2Cl)no1` [Compound I-221, N2-(3-Aminosulfonyl-4-methylphenyl)-N4-[3-chloro-4-(5-methylisoxazol-3-yl)methyleneoxyphenyl]-5-fluoro-2,4-pyrimidinediamine] yielded an IC50 of 4440 nM.

`Cc1cc(COc2ccc(Nc3nc(Nc4ccc(C)c(S(N)(=O)=O)c4)ncc3F)cc2F)no1` [Compound I-222, N2-(3-Aminosulfonyl-4-methylphenyl)-5-fluoro-N4-[3-fluoro-4-(5-methylisoxazol-3-yl)methyleneoxyphenyl]-2,4-pyrimidinediamine] gave an IC50 of 840 nM.

Work on `Cc1cc(COc2ccc(Nc3nc(Nc4cc(Cl)c(C)c(S(N)(=O)=O)c4)ncc3F)cc2F)no1` [Compound I-223, N2-(3-Aminosulfonyl-5-chloro-4-methylphenyl)-5-fluoro-N4-[3-fluoro-4-(5-methylisoxazol-3-yl)methyleneoxyphenyl]-2,4-pyrimidinediamine] yielded an IC50 of 1210 nM.

Work on `Cc1cc(COc2ccc(Nc3nc(Nc4cc(C)c(F)c(S(N)(=O)=O)c4)ncc3F)cc2F)no1` [Compound I-224, N2-(3-Aminosulfonyl-4-fluoro-5-methylphenyl)-5-fluoro-N4-[3-fluoro-4-(5-methylisoxazol-3-yl)methyleneoxyphenyl]-2,4-pyrimidinediamine] yielded an IC50 of 494 nM.

For `Cc1noc(COc2ccc(Nc3nc(Nc4ccc(S(N)(=O)=O)cc4)ncc3F)cc2)n1` [Compound I-231, N2-(4-Aminosulfonylphenyl)-5-fluoro-N4-[4-(3-methyl-1,2,4-oxadiazol-5-yl)methyleneoxyphenyl]-2,4-pyrimidinediamine], the IC50 was 8400 nM.

With `Cc1cc(COc2ccc(Nc3nc(Nc4ccc(F)c(S(N)(=O)=O)c4)ncc3F)cc2)no1` [Compound I-233, N2-(3-Aminosulfonyl-4-fluorophenyl)-5-fluoro-N4-[4-(5-methylisoxazol-3-yl)methyleneoxyphenyl]-2,4-pyrimidinediamine] the IC50 was 1750 nM.

In the case of `Cc1cc(COc2ccc(Nc3nc(Nc4ccc(C)c(S(N)(=O)=O)c4)ncc3F)cc2C)no1` [Compound I-234, N2-(3-Aminosulfonyl-4-methylphenyl)-5-fluoro-N4-[3-methyl-4-(5-methylisoxazol-3-yl)methyleneoxyphenyl]-2,4-pyrimidinediamine], the IC50 is reported as 2020 nM.

`CNS(=O)(=O)c1cc(Nc2ncc(F)c(Nc3ccc(OCc4cc(C)on4)cc3)n2)ccc1C` [Compound I-235, 5-Fluoro-N2-[3-(N-methyl)aminosulfonyl-4-methylphenyl]-N4-[4-(5-methylisoxazol-3-yl)methyleneoxyphenyl]-2,4-pyrimidinediamine] was tested, and the IC50 was 2560 nM.

In the case of `Cc1cc(COc2ccc(Nc3nc(Nc4ccc(F)c(S(N)(=O)=O)c4)ncc3F)cc2C)no1` [Compound I-237, N2-(3-Aminosulfonyl-4-fluorophenyl)-5-fluoro-N4-[3methyl-4-(5-methylisoxazol-3-yl)methyleneoxyphenyl]-2,4-pyrimidinediamine], the IC50 is reported as 3580 nM.

Compound `Cc1cc(COc2ccc(Nc3nc(Nc4cccc(S(N)(=O)=O)c4)ncc3F)cc2C)no1` [Compound I-238, N2-(3-Aminosulfonylphenyl)-5-fluoro-N4-[3-methyl-4-(5-methylisoxazol-3-yl)methyleneoxyphenyl]-2,4-pyrimidinediamine] has an IC50 of 1130 nM.

`CCN(CC)CCNS(=O)(=O)c1cccc(Nc2ncc(F)c(Nc3ccc(OCc4cc(C)on4)cc3)n2)c1` [Compound I-241, N2-[3-(2-N,N-Diethylaminoethyl)aminosulfonylphenyl)-5-fluoro-N4-[4-(5-methylisoxazol-3-yl)methyleneoxyphenyl]-2,4-pyrimidinediamine] gave an IC50 of 2870 nM.

`CCN(CC)CCNS(=O)(=O)c1cccc(Nc2ncc(F)c(Nc3ccc(OCc4cc(C)on4)c(C)c3)n2)c1` [Compound I-244, N2-[3-(2-N,N-Diethylaminoethyl)aminosulfonylphenyl)-5-fluoro-N4-[3-methyl-4-(5-methylisoxazol-3-yl)methyleneoxyphenyl]-2,4-pyrimidinediamine] was tested, and the IC50 was 3120 nM.
